In US20200239530A1, “COMPOUNDS AND METHODS OF MODULATING PROTEIN DEGRADATION” (Vividion Therapeutics, Inc., priority 2017, published 2020):
Read-outs that look alike come from different tables or passages of the source.

What was measured:
Experiment in all cases: Cysteine liganding, probe competition
Type in all cases: binding
UniProt O15151 = target: T1, UniProt O15151 (Homo sapiens, UniProt O15151); settings: for inhibition at 500 µM: read-out: percent inhibition
T1 construct: Cells were resuspended in cold PBS on ice and sonicated with a probe sonicator to achieve lysis; endogenous in cells
T1 sequence (O15151 1-490): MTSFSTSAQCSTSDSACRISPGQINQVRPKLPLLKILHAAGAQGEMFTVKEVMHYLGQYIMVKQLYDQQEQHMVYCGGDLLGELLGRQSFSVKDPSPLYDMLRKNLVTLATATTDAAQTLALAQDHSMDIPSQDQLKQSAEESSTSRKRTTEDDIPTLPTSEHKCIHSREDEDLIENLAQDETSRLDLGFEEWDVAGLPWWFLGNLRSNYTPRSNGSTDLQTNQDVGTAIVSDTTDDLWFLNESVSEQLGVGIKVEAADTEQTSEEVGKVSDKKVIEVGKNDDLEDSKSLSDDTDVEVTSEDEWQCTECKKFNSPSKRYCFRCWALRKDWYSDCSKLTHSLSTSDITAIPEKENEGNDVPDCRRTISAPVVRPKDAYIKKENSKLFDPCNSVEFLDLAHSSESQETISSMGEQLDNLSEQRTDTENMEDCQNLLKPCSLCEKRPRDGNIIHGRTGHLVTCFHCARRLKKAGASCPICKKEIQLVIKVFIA
From the text: (§1) The following 96-well sample prep protocol was used for sample preparation.

UniProt O43255 = target: T2, UniProt O43255 (Homo sapiens, UniProt O43255)
T2 construct: 200 μL of lysate containing 5 mg/ml proteome was treated with 2 μL of 100× compound stock; endogenous in cells
T2 sequence (O43255 1-324): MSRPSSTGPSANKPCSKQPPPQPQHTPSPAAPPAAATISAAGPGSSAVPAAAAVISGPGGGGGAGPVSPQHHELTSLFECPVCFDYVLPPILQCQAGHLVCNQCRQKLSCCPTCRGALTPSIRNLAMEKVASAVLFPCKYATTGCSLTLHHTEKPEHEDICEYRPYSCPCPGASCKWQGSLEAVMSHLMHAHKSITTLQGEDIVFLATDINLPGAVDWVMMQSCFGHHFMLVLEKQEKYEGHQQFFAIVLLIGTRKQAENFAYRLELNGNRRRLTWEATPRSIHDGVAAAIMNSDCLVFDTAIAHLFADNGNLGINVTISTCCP
From the text: as §1

UniProt Q9H0F6 = target: T3, UniProt Q9H0F6 (Homo sapiens, UniProt Q9H0F6); settings: read-out: percent_inhibition
T3 construct: 200 μL of lysate containing 5 mg/ml proteome was treated with 2 μL of 100× compound stock; endogenous in cells
T3 sequence (Q9H0F6 whole entry, change not shown): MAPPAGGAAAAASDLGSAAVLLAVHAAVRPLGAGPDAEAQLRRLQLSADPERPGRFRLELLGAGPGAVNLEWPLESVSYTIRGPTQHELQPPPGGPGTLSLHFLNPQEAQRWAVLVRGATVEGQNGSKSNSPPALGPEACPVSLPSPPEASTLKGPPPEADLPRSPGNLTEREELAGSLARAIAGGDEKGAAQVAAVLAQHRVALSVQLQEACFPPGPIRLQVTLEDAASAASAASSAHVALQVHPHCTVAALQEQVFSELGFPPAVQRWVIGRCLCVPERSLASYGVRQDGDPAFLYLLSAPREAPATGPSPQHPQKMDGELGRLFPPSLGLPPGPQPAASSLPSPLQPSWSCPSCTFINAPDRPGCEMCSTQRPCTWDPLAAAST
From the text: as §1

UniProt Q9Y2Z0 = target: T4, UniProt Q9Y2Z0 (Homo sapiens, UniProt Q9Y2Z0); settings: read-out: percent_inhibition
T4 construct: 200 μL of lysate containing 5 mg/ml proteome was treated with 2 μL of 100× compound stock; endogenous in cells
T4 sequence (Q9Y2Z0 whole entry, change not shown): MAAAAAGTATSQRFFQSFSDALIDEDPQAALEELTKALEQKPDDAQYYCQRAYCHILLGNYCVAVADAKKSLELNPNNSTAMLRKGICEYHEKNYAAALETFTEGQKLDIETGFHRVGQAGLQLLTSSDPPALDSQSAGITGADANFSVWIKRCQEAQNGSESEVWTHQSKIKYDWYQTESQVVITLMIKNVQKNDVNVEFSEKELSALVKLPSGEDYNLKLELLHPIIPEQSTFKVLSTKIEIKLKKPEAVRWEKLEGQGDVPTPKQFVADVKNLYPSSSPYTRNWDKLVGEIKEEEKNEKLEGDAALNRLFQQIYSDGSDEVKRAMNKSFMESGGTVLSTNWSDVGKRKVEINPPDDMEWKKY
From the text: as §1

UniProt Q96JY6 = target: T5, UniProt Q96JY6 (Homo sapiens, UniProt Q96JY6)
T5 construct: 200 μL of lysate containing 5 mg/ml proteome was treated with 2 μL of 100× compound stock; endogenous in cells
T5 sequence (Q96JY6 1-352): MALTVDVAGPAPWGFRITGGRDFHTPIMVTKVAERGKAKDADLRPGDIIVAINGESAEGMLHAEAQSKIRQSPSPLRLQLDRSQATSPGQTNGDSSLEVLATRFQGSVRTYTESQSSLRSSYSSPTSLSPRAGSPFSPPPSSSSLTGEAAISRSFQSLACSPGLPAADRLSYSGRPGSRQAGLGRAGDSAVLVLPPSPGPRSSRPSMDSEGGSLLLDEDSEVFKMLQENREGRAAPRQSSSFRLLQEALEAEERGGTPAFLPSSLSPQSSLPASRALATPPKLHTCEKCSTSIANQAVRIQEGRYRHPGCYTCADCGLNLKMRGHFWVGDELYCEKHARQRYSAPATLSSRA
From the text: as §1

UniProt Q96EX2 = target: T6, UniProt Q96EX2 (Homo sapiens, UniProt Q96EX2); settings: for inhibition at 100 µM / inhibition at 500 µM: read-out: percent_inhibition
T6 construct: 200 μL of lysate containing 5 mg/ml proteome was treated with 2 μL of 100× compound stock; endogenous in cells
T6 sequence (Q96EX2 1-444): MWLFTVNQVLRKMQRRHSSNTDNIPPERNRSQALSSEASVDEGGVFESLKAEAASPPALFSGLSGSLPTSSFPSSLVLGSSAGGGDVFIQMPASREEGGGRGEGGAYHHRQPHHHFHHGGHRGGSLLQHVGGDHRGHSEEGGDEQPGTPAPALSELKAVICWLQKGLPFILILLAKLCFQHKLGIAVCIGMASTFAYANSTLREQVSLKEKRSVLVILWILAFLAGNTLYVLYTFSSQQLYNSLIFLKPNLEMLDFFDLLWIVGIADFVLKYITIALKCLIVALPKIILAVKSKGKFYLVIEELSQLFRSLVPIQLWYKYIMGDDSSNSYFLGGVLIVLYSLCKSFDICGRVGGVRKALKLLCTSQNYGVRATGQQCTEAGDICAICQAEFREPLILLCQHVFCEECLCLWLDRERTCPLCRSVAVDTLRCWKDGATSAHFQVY
From the text: as §1

UniProt Q9BVG3 = target: T7, UniProt Q9BVG3 (Homo sapiens, UniProt Q9BVG3)
T7 construct: 200 μL of lysate containing 5 mg/ml proteome was treated with 2 μL of 100× compound stock; endogenous in cells
T7 sequence (Q9BVG3 whole entry, change not shown): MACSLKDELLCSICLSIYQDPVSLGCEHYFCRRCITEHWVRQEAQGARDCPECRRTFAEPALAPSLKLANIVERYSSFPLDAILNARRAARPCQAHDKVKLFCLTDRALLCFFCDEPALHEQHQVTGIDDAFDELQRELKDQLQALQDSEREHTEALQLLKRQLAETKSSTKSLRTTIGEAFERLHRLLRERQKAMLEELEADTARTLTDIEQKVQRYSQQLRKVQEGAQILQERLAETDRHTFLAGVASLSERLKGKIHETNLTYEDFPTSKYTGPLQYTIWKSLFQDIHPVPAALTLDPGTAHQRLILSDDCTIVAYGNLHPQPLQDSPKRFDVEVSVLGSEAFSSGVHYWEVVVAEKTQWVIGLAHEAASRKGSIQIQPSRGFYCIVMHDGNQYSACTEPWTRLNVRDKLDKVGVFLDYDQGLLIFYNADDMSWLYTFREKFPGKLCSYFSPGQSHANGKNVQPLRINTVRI
From the text: as §1

UniProt O00623 = target: T8, UniProt O00623 (Homo sapiens, UniProt O00623)
T8 construct: 200 μL of lysate containing 5 mg/ml proteome was treated with 2 μL of 100× compound stock; endogenous in cells
T8 sequence (O00623 whole entry, change not shown): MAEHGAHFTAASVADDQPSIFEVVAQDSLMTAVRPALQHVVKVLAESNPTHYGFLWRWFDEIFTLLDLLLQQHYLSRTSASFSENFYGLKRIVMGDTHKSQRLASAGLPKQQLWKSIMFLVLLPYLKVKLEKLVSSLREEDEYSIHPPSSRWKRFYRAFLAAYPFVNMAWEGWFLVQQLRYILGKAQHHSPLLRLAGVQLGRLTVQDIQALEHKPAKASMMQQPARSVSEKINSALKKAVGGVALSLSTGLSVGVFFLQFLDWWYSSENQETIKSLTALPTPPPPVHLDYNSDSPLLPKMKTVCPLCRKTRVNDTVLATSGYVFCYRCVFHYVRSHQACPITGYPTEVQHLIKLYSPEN
From the text: as §1

UniProt Q9H992 = target: T9, UniProt Q9H992 (Homo sapiens, UniProt Q9H992)
T9 construct: Cells were resuspended in cold PBS on ice and sonicated with a probe sonicator to achieve lysis; endogenous in cells
From the text: as §1

UniProt P78317 = target: T10, UniProt P78317 (Homo sapiens, UniProt P78317)
T10 construct: 200 μL of lysate containing 5 mg/ml proteome was treated with 2 μL of 100× compound stock; endogenous in cells
T10 sequence (P78317 whole entry, change not shown): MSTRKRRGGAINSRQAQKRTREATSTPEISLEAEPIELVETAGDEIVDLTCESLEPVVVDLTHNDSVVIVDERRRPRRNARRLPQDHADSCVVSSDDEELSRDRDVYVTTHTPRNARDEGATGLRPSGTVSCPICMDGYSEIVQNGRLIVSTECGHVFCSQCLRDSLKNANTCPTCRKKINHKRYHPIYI
From the text: as §1

UniProt P49792 = target: T11, UniProt P49792 (Homo sapiens, UniProt P49792); settings: 500 uM
T11 construct: 200 μL of lysate containing 5 mg/ml proteome was treated with 2 μL of 100× compound stock; endogenous in cells
T11 sequence (P49792 whole entry, change not shown): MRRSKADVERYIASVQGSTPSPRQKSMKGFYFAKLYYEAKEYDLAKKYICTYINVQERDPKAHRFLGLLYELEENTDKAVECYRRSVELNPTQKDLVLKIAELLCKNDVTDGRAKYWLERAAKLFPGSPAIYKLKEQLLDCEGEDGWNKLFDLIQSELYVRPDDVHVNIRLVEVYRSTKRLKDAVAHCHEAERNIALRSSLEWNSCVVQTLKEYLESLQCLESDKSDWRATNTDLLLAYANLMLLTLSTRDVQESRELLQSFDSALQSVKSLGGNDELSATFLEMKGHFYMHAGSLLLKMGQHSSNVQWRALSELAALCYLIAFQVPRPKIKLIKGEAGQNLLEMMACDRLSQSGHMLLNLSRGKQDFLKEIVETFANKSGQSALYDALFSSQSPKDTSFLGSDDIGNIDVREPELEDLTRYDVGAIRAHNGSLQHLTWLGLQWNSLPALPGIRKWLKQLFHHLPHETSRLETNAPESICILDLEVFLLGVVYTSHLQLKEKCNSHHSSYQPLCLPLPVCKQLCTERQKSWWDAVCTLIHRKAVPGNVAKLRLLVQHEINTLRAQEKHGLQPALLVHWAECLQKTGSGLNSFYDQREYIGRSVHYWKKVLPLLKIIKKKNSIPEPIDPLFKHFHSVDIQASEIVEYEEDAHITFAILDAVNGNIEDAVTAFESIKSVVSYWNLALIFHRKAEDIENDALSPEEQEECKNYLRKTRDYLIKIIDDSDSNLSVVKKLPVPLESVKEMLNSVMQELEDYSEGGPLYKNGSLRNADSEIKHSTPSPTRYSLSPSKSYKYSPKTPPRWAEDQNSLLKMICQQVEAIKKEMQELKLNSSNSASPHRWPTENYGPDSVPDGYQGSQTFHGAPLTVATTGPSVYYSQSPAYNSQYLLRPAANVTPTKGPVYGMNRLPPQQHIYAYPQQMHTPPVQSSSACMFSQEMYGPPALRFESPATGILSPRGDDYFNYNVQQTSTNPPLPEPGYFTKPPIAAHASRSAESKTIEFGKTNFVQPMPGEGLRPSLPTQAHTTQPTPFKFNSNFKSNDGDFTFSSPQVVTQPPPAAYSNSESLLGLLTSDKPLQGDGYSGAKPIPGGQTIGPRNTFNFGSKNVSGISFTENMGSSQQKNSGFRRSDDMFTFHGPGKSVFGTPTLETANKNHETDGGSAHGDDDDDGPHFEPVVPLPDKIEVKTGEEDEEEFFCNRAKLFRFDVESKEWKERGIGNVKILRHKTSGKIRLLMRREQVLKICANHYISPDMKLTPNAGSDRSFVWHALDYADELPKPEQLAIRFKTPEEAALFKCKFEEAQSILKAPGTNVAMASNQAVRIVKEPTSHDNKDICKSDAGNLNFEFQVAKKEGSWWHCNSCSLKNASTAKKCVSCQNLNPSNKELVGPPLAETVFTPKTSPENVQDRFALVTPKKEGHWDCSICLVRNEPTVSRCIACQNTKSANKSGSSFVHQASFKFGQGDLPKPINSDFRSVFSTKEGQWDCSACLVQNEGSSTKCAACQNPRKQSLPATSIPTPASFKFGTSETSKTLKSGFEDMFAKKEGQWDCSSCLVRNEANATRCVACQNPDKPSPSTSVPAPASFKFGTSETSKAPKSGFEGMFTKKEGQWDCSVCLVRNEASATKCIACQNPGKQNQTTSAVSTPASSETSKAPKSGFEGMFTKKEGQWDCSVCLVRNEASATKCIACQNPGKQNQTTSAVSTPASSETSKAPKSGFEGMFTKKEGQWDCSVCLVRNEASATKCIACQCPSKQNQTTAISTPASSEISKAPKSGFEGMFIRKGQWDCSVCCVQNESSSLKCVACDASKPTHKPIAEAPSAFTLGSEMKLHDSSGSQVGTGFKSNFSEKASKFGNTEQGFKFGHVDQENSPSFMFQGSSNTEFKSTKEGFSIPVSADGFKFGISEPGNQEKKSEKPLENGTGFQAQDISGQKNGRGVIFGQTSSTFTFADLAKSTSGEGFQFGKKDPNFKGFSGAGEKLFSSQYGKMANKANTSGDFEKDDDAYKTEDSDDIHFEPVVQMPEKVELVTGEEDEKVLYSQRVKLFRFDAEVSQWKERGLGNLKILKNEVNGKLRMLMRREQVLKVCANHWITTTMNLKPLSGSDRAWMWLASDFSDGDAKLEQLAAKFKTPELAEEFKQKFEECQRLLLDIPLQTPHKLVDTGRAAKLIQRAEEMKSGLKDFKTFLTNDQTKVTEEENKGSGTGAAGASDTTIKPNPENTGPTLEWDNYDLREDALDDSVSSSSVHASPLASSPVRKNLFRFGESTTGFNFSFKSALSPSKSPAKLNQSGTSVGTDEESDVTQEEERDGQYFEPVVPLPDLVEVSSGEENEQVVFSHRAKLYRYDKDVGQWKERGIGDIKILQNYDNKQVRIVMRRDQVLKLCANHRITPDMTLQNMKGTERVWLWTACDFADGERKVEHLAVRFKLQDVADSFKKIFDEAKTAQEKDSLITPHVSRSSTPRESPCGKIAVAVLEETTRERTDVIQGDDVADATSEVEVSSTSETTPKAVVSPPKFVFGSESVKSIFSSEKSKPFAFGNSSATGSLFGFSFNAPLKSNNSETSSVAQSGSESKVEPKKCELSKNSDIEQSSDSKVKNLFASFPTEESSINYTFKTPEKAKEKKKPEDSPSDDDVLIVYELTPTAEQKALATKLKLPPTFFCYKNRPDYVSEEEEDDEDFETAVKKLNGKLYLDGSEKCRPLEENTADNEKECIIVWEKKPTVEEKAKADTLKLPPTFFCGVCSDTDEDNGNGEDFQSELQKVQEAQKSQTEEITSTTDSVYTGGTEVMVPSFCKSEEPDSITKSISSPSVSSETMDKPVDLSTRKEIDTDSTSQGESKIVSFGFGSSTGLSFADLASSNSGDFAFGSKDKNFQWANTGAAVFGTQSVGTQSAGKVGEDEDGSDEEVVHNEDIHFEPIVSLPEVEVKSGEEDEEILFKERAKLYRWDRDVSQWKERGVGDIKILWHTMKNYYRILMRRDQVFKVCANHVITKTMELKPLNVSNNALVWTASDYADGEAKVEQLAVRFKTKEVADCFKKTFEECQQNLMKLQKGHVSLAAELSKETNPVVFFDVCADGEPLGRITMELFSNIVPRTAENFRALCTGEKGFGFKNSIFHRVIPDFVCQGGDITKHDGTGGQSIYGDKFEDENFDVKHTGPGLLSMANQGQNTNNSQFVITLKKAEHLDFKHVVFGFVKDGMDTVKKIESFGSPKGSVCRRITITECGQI
From the text: as §1

UniProt P36406 = target: T12, UniProt P36406 (Homo sapiens, UniProt P36406)
T12 construct: 200 μL of lysate containing 5 mg/ml proteome was treated with 2 μL of 100× compound stock; endogenous in cells
From the text: as §1

UniProt Q8WV22 = target: T13, UniProt Q8WV22 (Homo sapiens, UniProt Q8WV22)
T13 construct: Cells were resuspended in cold PBS on ice and sonicated with a probe sonicator to achieve lysis; endogenous in cells
T13 sequence (Q8WV22 1-266): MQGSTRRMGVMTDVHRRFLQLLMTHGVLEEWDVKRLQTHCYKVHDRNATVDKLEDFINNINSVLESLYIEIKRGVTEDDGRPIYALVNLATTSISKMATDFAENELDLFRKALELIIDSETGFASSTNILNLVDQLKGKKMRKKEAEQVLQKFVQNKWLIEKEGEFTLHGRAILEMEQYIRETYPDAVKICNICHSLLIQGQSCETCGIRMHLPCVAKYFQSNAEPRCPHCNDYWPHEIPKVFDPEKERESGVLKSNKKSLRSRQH
From the text: as §1

[1] = 500 uM, read-out: percent_inhibition
[2] = 500 uM, read-out: KB05_500 uM_percent_inhibition

## COc1ccc2c(c1)CCCN2C(=O)CCl [KB02]
UniProt O15151
  inhibition at 500 µM: 29%
UniProt O43255; 100 uM
  percent_inhibition: 20%
UniProt O43255; 100 uM, read-out: percent_inhibition
  inhibition at 100 µM: 31%
UniProt Q9H0F6
  inhibition at 100 µM: 3%
UniProt Q9Y2Z0
  inhibition at 100 µM: 20%
UniProt Q96JY6; read-out: KB02_100 uM_percent_inhibition
  inhibition at 100 µM: 23%
UniProt Q96EX2
  inhibition at 100 µM: 44%
UniProt Q96EX2; 500 uM
  inhibition at 500 µM: 42%
UniProt Q9BVG3; 100 uM, read-out: KB02_100 uM_percent_inhibition
  inhibition at 100 µM: 1%
UniProt O00623; read-out: KB02_500 uM_percent_inhibition
  inhibition at 500 µM: 61%

## C=CC(=O)N(c1ccccc1)c1ccc(Br)cc1 [KB05]
UniProt O15151; 500 uM
  percent inhibition: 41%
UniProt O15151
  inhibition at 500 µM: 55%
UniProt Q9H992; read-out: percent inhibition
  inhibition at 100 µM: 21%
UniProt O43255; [1]
  inhibition at 500 µM: 28%
UniProt Q9H0F6
  inhibition at 100 µM: 25%
UniProt P78317; [1]
  inhibition at 500 µM: 24%
UniProt Q9Y2Z0
  inhibition at 100 µM: 31%
UniProt Q96JY6; read-out: KB05_100 uM_percent_inhibition
  inhibition at 100 µM: 33%
UniProt Q96JY6; [2]
  inhibition at 500 µM: 36%
UniProt P49792
  KB05_500 uM_percent_inhibition: 75%
UniProt P36406; read-out: KB05_500 uM_percent_inhibition
  inhibition at 500 µM: 61%
UniProt Q96EX2
  inhibition at 100 µM: 17%
UniProt Q96EX2; 500 uM
  percent_inhibition: 29%
  inhibition at 500 µM: 16%
UniProt Q8WV22; 100 uM, read-out: KB05_100 uM_percent_inhibition
  inhibition at 100 µM: 13%
UniProt Q8WV22; 500 uM
  KB05_500 uM_percent_inhibition: 66%
UniProt Q8WV22; [2]
  inhibition at 500 µM: 64%

## O=C(CCl)Nc1cc(C(F)(F)F)cc(C(F)(F)F)c1 [KBO3]
UniProt Q9H992; 100 uM
  percent inhibition: 82%
UniProt P78317; 100 uM
  percent_inhibition: 16%
UniProt P49792
  KB03_500 uM_percent_inhibition: 79%
UniProt P36406; 500 uM
  KB03_500 uM_percent_inhibition: 17%
UniProt Q9BVG3; 500 uM
  KB03_500 uM_percent_inhibition: 59%
UniProt Q8WV22; 100 uM
  KB03_100 uM_percent_inhibition: 2%
UniProt O00623; 500 uM
  KB03_500 uM_percent_inhibition: 51%
